This note sets out measurements from US9187484B2 (Southern Research Institute, priority 2012, dated 2015).

The assay has as its target T1, LRRK2 (G2019S) (Homo sapiens, UniProt Q5S007, G2019S).
T1 construct: Recombinant GST-LRRK2 (delta970), purified from baculovirus infected insect cells (SF9); GST (N); host or cells: baculovirus infected insect cells (SF9)
Nature of the assay: LRRK2 inhibition, radiometric kinase assay with recombinant GST-LRRK2 (delta970) and peptide substrate. The class given is biochemical. The settings on record: GST-LRRK2 (delta970) G2019S 30 nM, ATP ~52 μM (Km), 30 min at 30° C. The method, then:
Compounds were assessed for inhibition of LRRK2 inhibition using the following procedure.
Recombinant GST-LRRK2 (delta970), purified from baculovirus infected insect cells (SF9), at least 90% pure and either wild-type sequence or bearing the pathogenic G2019S mutation, was combined into a kinase buffer at 30 nM concentration. Kinase buffer consists of 50 mM Tris HCl pH 7.4, 1 mM EDTA, and 50 μM peptide substrate (amino acid sequence […]). Experimental compounds or control (no compound) were added at desired concentrations in DMSO and water, where final concentration of DMSO in kinase reactions was 0.1% for all drug concentrations. Activation buffer that consists of a final concentration in the reactions of 10 mM MgCl2 and ATP (˜92 μM for WT-LRRK2 reactions and ˜52 μM for G2019S-LRRK2, which represent respective Km ATP concentrations) were added to each reaction, in addition to 0.5 μCi of gamma-32-P-dATP per reaction. Reactions were incubated at 1400 RPM at 30° C. for 30 min. and then spotted in triplicate directly onto a slot-blot apparatus fitted with phospho-cellulose paper and allowed to dry. Each slot was then washed with 10 mM phosphoric acid buffer until beta-radiation could not be detected in eluted wash buffer, usually ˜1 mL per slot. Paper within each slot were excised and radiation measured by liquid scintillation.

T1 sequence (Q5S007 970-2527 G2019S limits assumed): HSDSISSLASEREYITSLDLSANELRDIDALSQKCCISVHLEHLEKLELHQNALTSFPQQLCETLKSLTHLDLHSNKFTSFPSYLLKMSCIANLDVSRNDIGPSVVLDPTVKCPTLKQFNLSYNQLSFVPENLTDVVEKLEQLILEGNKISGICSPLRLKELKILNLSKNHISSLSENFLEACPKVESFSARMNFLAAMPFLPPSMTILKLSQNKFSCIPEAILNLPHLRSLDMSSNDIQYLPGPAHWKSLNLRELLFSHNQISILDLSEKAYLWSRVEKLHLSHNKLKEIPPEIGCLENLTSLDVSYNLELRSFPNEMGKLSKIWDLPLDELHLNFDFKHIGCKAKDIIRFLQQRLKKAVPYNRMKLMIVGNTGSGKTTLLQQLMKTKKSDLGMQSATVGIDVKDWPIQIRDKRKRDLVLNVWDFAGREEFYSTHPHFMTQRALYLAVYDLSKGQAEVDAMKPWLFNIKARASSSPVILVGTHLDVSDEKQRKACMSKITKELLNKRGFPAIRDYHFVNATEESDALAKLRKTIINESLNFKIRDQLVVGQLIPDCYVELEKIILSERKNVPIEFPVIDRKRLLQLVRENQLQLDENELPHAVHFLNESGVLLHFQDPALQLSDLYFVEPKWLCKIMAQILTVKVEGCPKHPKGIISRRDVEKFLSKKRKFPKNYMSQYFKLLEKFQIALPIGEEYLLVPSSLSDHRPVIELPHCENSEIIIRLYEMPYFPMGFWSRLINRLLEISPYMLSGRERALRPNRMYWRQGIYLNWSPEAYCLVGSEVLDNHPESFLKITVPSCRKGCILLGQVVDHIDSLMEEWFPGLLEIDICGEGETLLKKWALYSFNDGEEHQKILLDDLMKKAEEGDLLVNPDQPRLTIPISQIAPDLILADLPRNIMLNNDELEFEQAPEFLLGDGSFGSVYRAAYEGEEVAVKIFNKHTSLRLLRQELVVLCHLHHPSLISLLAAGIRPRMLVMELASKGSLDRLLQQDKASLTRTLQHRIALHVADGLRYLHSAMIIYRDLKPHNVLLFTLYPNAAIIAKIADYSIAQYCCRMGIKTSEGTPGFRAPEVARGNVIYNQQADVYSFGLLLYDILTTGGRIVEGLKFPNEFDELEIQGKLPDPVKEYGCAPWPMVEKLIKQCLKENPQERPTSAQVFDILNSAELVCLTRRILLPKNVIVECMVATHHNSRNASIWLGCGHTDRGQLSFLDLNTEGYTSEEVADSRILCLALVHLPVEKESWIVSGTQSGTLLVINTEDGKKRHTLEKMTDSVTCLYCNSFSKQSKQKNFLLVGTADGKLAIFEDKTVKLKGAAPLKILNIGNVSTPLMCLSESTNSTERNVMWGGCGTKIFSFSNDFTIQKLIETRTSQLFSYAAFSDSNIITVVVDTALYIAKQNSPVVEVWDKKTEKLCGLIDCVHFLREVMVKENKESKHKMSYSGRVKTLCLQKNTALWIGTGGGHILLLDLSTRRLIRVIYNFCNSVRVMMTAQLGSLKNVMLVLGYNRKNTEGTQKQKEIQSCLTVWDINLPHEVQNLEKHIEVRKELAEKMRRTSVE

What is called IC50 is the concentration needed to halve the response being measured. `CCC(Sc1ccc2nnc(-c3ccccc3F)n2n1)C(N)=O` (centres unmarked) [Example 80, 2-((3-(2-fluorophenyl)-[1,2,4]triazolo[4,3-b]pyridazin-6-yl)thio)butanamide]: the half-inhibitory concentration (IC50) fell in the range of 0.1 to 1 µM.
For the compound `CCC(Sc1ccc2nnc(-c3cccc(F)c3)n2n1)C(N)=O` (centres unmarked) [Example 81, 2-((3-(3-fluorophenyl)-[1,2,4]triazolo[4,3-b]pyridazin-6-yl)thio)butanamide], the IC50 was 0.1 to 1 µM.
As for `CCOC(=O)C(CC)Oc1ccc2nnc(-c3cccs3)n2n1` (centres unmarked) [Example 82, ethyl 2-((3-(thiophen-2-yl)-[1,2,4]triazolo[4,3-b]pyridazin-6-yl)oxy)butanoate], the figure is no less than 5 µM.
To `CCC(Oc1ccc2nnc(-c3cccs3)n2n1)C(=O)O` (centres unmarked) [Example 83, 2-((3-(thiophen-2-yl)-[1,2,4]triazolo[4,3-b]pyridazin-6-yl)oxy)butanoic acid] belongs no less than 5 µM; to `CCC(Oc1ccc2nnc(-c3cccs3)n2n1)C(N)=O` (centres unmarked) [Example 84, 2-((3-(thiophen-2-yl)-[1,2,4]triazolo[4,3-b]pyridazin-6-yl)oxy)butanamide], no less than 5 µM; to `CCC(Oc1ccc2nnc(-c3cccs3)n2n1)C(=O)N1CCCCC1` (centres unmarked) [Example 85, 1-(piperidin-1-yl)-2-((3-(thiophen-2-yl)-[1,2,4]triazolo[4,3-b]pyridazin-6-yl)oxy)butan-1-one], no less than 5 µM.
As for `CCC(Sc1ccc2nnc(-c3cccs3)n2n1)C(=O)Nc1ccccc1` (centres unmarked) [Example 86, N-phenyl-2-((3-(thiophen-2-yl)-[1,2,4]triazolo[4,3-b]pyridazin-6-yl)thio)butanamide], the figure is no less than 5 µM; as for `CCc1ccc(-c2nnc3ccc(SC(CC)C(=O)N4CCCCC4)nn23)s1` (centres unmarked) [Example 87, 2-((3-(5-ethylthiophen-2-yl)-[1,2,4]triazolo[4,3-b]pyridazin-6-yl)thio)-1-(piperidin-1-yl)butan-1-one], 0.1 to 1 µM; as for `CCc1ccc(-c2cnc3ccc(SC(CC)C(=O)O)nn23)s1` (centres unmarked) [Example 88, 2-((3-(5-ethylthiophen-2-yl)imidazo[1,2-b]pyridazin-6-yl)thio)butanoic acid], 1 to 5 µM.
Take `CCC(Sc1ccc2nnc(-c3ccc(C)s3)n2n1)C(=O)O` (centres unmarked) [Example 89, 2-((3-(5-methylthiophen-2-yl)-[1,2,4]triazolo[4,3-b]pyridazin-6-yl)thio)butanoic acid]: the IC50 is 0.1 to 1 µM.
In the case of `NC(=O)CS(=O)(=O)c1ccc2nnc(-c3cccs3)n2n1` [Example 91, 2-((3-(thiophen-2-yl)-[1,2,4]triazolo[4,3-b]pyridazin-6-yl)sulfonyl)acetamide], the half-inhibitory concentration (IC50) lay within 1 to 5 µM.
As for `CCCC(Sc1ccc2nnc(-c3cccs3)n2n1)C(=O)O` (centres unmarked) [Example 92, 2-((3-(thiophen-2-yl)-[1,2,4]triazolo[4,3-b]pyridazin-6-yl)thio)pentanoic acid], the figure is 0.1 to 1 µM; as for `CCCC(Sc1ccc2nnc(-c3cccs3)n2n1)C(=O)N1CCCCC1` (centres unmarked) [Example 93, 1-(piperidin-1-yl)-2-((3-(thiophen-2-yl)-[1,2,4]triazolo[4,3-b]pyridazin-6-yl)thio)pentan-1-one], 0.1 to 1 µM; as for `CCC(Sc1ccc2nnc(-c3ccccc3F)n2n1)C(=O)N1CCCCC1` (centres unmarked) [Example 94, 2-((3-(2-fluorophenyl)-[1,2,4]triazolo[4,3-b]pyridazin-6-yl)thio)-1-(piperidin-1-yl)butan-1-one], 0.1 to 1 µM.
To `CCC(Sc1ccc2nnc(-c3ccc(C(F)(F)F)cc3)n2n1)C(=O)N1CCCCC1` (centres unmarked) [Example 95, 1-(piperidin-1-yl)-2-((3-(4-(trifluoromethyl)phenyl)-[1,2,4]triazolo[4,3-b]pyridazin-6-yl)thio)butan-1-one] belongs 1 to 5 µM.
To `CCC(Sc1ccc2nnc(-c3ccc(F)c(F)c3)n2n1)C(=O)N1CCCCC1` (centres unmarked) [Example 96, 2-((3-(3,4-difluorophenyl)-[1,2,4]triazolo[4,3-b]pyridazin-6-yl)thio)-1-(piperidin-1-yl)butan-1-one] belongs 0.1 to 1 µM; to `CCC(Sc1ccc2nnc(-c3cccc(F)c3)n2n1)C(=O)N1CCCCC1` (centres unmarked) [Example 97, 2-((3-(3-fluorophenyl)-[1,2,4]triazolo[4,3-b]pyridazin-6-yl)thio)-1-(piperidin-1-yl)butan-1-one], 0.1 to 1 µM.
Turning to `CCC(Nc1ccc2nnc(-c3cccs3)n2n1)C(=O)OC` (centres unmarked) [Example 98, methyl 2-((3-(thiophen-2-yl)-[1,2,4]triazolo[4,3-b]pyridazin-6-yl)amino)butanoate], the IC50 is no less than 5 µM.
As for `CCC(Nc1ccc2nnc(-c3cccs3)n2n1)C(N)=O` (centres unmarked) [Example 99, 2-((3-(thiophen-2-yl)-[1,2,4]triazolo[4,3-b]pyridazin-6-yl)amino)butanamide], the figure is no less than 5 µM; as for `CCC(Nc1ccc2nnc(-c3cccs3)n2n1)C(=O)N1CCCCC1` (centres unmarked) [Example 100, 1-(piperidin-1-yl)-2-((3-(thiophen-2-yl)-[1,2,4]triazolo[4,3-b]pyridazin-6-yl)amino)butan-1-one], no less than 5 µM.
In the case of `CC(Sc1ccc2nnc(-c3cccs3)n2n1)C(=O)N1CCC1` (centres unmarked) [Example 101, 1-(azetidin-1-yl)-2-((3-(thiophen-2-yl)-[1,2,4]triazolo[4,3-b]pyridazin-6-yl)thio)propan-1-one], the IC50 was less than 0.1 µM.
As for `CCOC(=O)C1CCCN(C(=O)C(CC)Sc2ccc3nnc(-c4cccs4)n3n2)C1` (centres unmarked) [Example 103, ethyl 1-(2-((3-(thiophen-2-yl)-[1,2,4]triazolo[4,3-b]pyridazin-6-yl)thio)butanoyl)piperidine-3-carboxylate], the figure is 1 to 5 µM; as for `CCC(Sc1ccc2nnc(-c3cccs3)n2n1)C(=O)N1CCCCC1C` (centres unmarked) [Example 104, 1-(2-methylpiperidin-1-yl)-2-((3-(thiophen-2-yl)-[1,2,4]triazolo[4,3-b]pyridazin-6-yl)thio)butan-1-one], 0.1 to 1 µM.
As for `CC(Sc1ccc2nnc(-c3cccs3)n2n1)C(=O)N1CCCC1` (centres unmarked) [Example 105, 1-(pyrrolidin-1-yl)-2-((3-(thiophen-2-yl)-[1,2,4]triazolo[4,3-b]pyridazin-6-yl)thio)propan-1-one], the figure is less than 0.1 µM; as for `CCC(Sc1ccc2nnc(-c3ccccc3)n2n1)C(=O)N1CCCCC1` (centres unmarked) [Example 106, 2-((3-phenyl-[1,2,4]triazolo[4,3-b]pyridazin-6-yl)thio)-1-(piperidin-1-yl)butan-1-one], 0.1 to 1 µM.
To `CC(C)(Sc1ccc2nnc(-c3cccs3)n2n1)C(=O)N1CCCC1` [Example 107, 2-methyl-1-(pyrrolidin-1-yl)-2-((3-(thiophen-2-yl)-[1,2,4]triazolo[4,3-b]pyridazin-6-yl)thio)propan-1-one] belongs 1 to 5 µM; to `CC(Sc1ccc2nnc(-c3cnccn3)n2n1)C(=O)N1CCCCC1` (centres unmarked) [Example 108, 1-(piperidin-1-yl)-2-((3-(pyrazin-2-yl)-[1,2,4]triazolo[4,3-b]pyridazin-6-yl)thio)propan-1-one], 0.1 to 1 µM; to `CC(Sc1ccc2nnc(-c3ncccn3)n2n1)C(=O)N1CCCCC1` (centres unmarked) [Example 109, 1-(piperidin-1-yl)-2-((3-(pyrimidin-2-yl)-[1,2,4]triazolo[4,3-b]pyridazin-6-yl)thio)propan-1-one], 0.1 to 1 µM.
Take `CC(Sc1ccc2nnc(-c3cscn3)n2n1)C(=O)N1CCCCC1` (centres unmarked) [Example 110, 1-(piperidin-1-yl)-2-((3-(thiazol-4-yl)-[1,2,4]triazolo[4,3-b]pyridazin-6-yl)thio)propan-1-one]: the IC50 was in the range of 0.1 to 1 µM.
To `CC(Sc1ccc2nnc(-c3cscn3)n2n1)C(=O)N1CCCC1` (centres unmarked) [Example 111, 1-(pyrrolidin-1-yl)-2-((3-(thiazol-4-yl)-[1,2,4]triazolo[4,3-b]pyridazin-6-yl)thio)propan-1-one] belongs 0.1 to 1 µM; to `CC(Sc1ccc2nnc(-c3ccnn3C)n2n1)C(=O)N1CCCCC1` (centres unmarked) [Example 112, 2-((3-(1-methyl-1H-pyrazol-5-yl)-[1,2,4]triazolo[4,3-b]pyridazin-6-yl)thio)-1-(piperidin-1-yl)propan-1-one], no less than 5 µM.
As for `CC(Sc1ccc2nnc(-c3ccn(C)n3)n2n1)C(=O)N1CCCCC1` (centres unmarked) [Example 113, 2-((3-(1-methyl-1H-pyrazol-3-yl)-[1,2,4]triazolo[4,3-b]pyridazin-6-yl)thio)-1-(piperidin-1-yl)propan-1-one], the figure is 0.1 to 1 µM; as for `CCC(Sc1ccc2nnc(-c3cccs3)n2n1)C(=O)N1CCC1` (centres unmarked) [Example 114, 1-(azetidin-1-yl)-2-((3-(thiophen-2-yl)-[1,2,4]triazolo[4,3-b]pyridazin-6-yl)thio)butan-1-one], 0.1 to 1 µM.
Turning to `CC(Sc1ccc2nnc(-c3ccn[nH]3)n2n1)C(=O)N1CCCCC1` (centres unmarked) [Example 115, 2-((3-(1H-pyrazol-5-yl)-[1,2,4]triazolo[4,3-b]pyridazin-6-yl)thio)-1-(piperidin-1-yl)propan-1-one], the IC50 lay in the range of 0.1 to 1 µM.
As for `CCCN(CCC)C(=O)C(C)Sc1ccc2nnc(-c3cccs3)n2n1` (centres unmarked) [Example 123, N,N-dipropyl-2-((3-(thiophen-2-yl)-[1,2,4]triazolo[4,3-b]pyridazin-6-yl)thio)propanamide], the IC50 lay within 1 to 5 µM.
